Measurements from BindingDB's records for doi:10.1016/j.bmc.2007.03.073 (University of Upper Alsace, 2007).
pIC50, pKi: −log10 of the molar value.

Test: Inhibition of yeast alpha-D-glucosidase

Row | pIC50 | pKi | SMILES
1 | 3.82 |  | O=C1CNC[C@@H]1O
2 |  | 5.70 | O[C@H]1[C@H](O)CN[C@H]1O
3 |  | 5.20 | OC[C@H]1NC(O)[C@H](O)[C@@H](O)[C@@H]1O (stereo partly drawn) [NOJIRIMYCIN]
